Source: patent publication US8778896B2, “Levoisovalerylspiramycin I, II or III, preparations, preparation methods and uses thereof” (Shenyang Tonglian Group Co., Ltd., priority 2010, dated 2014)
≈ marks a conversion by molar mass, not a printed value.

Experiments:
[1] = system: staphylococcus aureus (155); test: Clinical isolates, agar double dilution method; format: cell-based; settings: 155 clinical isolates of staphylococcus aureus; for MIC50: read-out: MIC50; for MIC90: read-out: MIC90
staphylococcus aureus12 [2] = test: MIC against the infecting test organism; format: cell-based, staphylococcus aureus; settings: read-out: MIC
staphylococcus aureus12 [3] = test: Curative effect on mouse with abdominal infection (ED50); format: in vivo, staphylococcus aureus; settings: Staphylococcus, AUREUS12, 168 h, staphylococcus aureus12, challenging dose 4.8 × 10^4 CFU/0.5 ml, deaths in 7 days, Bliss, read-out: ED50
Description: (§1) Test method: preparation of infection bacterial liquid: taking out the test bacterial liquid which is kept in a refrigerator at −80[…] to room temperature for about 1 h, then inoculating streptococcus pneumonia, pyogenic streptococcus and enterococcus absorbing 0.1 ml bacterial liquid respectively to 2 ml MH broth (add 10% inactivated horse serum), and inoculating 0.1 ml bacterial liquid of staphylococcus aureus to 2 ml MH broth according to the same method above; putting it in an incubator at 37[…] to be cultivated for 18 h, to obtain original bacterial liquid; diluting the original bacterial liquid with 5% gastric mucin to make animals infected with 100% lethal bacteria, to obtain infection bacterial liquid.
(§2) The clinical route of administration of carrimycin is proposed to be oral administration, thus intragastric administration is adopted in carrimychin test. Levoisovalerylspiramycin I (obtained in Embodiment 1) and of crystalline compound of levoisovalerylspiramycin I (prepared in Embodiment 27) are fed to animals via […].
(§3) After the mice are infected, respectively feed each mouse 0.2 ml via intragastric administration at 0.5 to 6 h, and they have no adverse reaction. Observe the number of deaths in 7 days, and calculate the 50% effective dose (ED50) of each drug for the infected mouse and compare the protective effect of drugs by Bliss program.

staphylococcus aureus76 [4] = test: as above; format: in vivo, staphylococcus aureus; settings: Staphylococcus, AUREUS76, 168 h, staphylococcus aureus76, challenging dose 5.8 × 10^4 CFU/0.5 ml, deaths in 7 days, Bliss, read-out: ED50
Description: as §1, §2, §3

staphylococcus aureus16 = test: as above; format: in vivo, staphylococcus aureus; settings: Staphylococcus, AUREUS16, 168 h, staphylococcus aureus16, challenging dose 5.2 × 10^3 CFU/0.5 ml, deaths in 7 days, Bliss, read-out: ED50
Description: as §1, §2, §3

staphylococcus aureus21 = test: as above; format: in vivo, staphylococcus aureus; settings: Staphylococcus, AUREUS21, 168 h, staphylococcus aureus21, challenging dose 4.2 × 10^4 CFU/0.5 ml, deaths in 7 days, Bliss, read-out: ED50
Description: as §1, §2, §3

[5] = system: streptococcus pneumoniae18; test: MIC against the infecting test organism; format: cell-based, streptococcus pneumoniae; settings: read-out: MIC
[6] = system: streptococcus pneumoniae3; test: MIC against the infecting test organism; format: cell-based, streptococcus pneumoniae; settings: read-out: MIC
[7] = system: Chlamydia Trachomatis B/TW-5/OT; test: Chlamydia in vitro MIC, McCoy cells, immunofluorescence; format: cell-based; settings: 48 hours, read-out: MIC
[8] = Acute toxicity on mice via oral administration; settings: 4000 mg/kg
Description: (§4) Both mice and rats take drugs orally (levoisovalerylspiramycin I, II and III prepared in Embodiment 1)
After observing the mice and rats for two days before test, and those without abnormal conditions is carried out test. Don't give anything to eat to mice and rats overnight before test. […] In this test, feed drugs to mice and rats respectively as per 4000 mg/kg, wherein, mice follow 100 mg/ml, with intragastric administration capacity of 0.6-0.8 ml per one, while rats 173 mg/ml, with intragastric administration capacity of 0.8˜1.0 ml/50 g. Observe those taking drugs for one week for toxic reaction and death.

12 strains of bacteria = test: Protective effect on mouse infected with 12 strains of bacteria; format: in vivo; settings: in words
Description: as §1, §2, §3

S. epidermidis (115) = test: Clinical isolates, agar double dilution method; format: cell-based; settings: Staphylococcus epidermidis, 115 clinical isolates of S. epidermidis; for MIC50: read-out: MIC50; for MIC90: read-out: MIC90
staphylococcus aureus76 [9] = test: MIC against the infecting test organism; format: cell-based, staphylococcus aureus; settings: read-out: MIC
[10] = system: Chlamydia Trachomatis D/UW-3/Cx; test: Chlamydia in vitro MIC, McCoy cells, immunofluorescence; format: cell-based; settings: 48 hours, read-out: MIC
[11] = system: pyogenic streptococcus 772; test: MIC against the infecting test organism; format: cell-based; settings: read-out: MIC
[12] = Acute toxicity on rats via oral administration; settings: 4500 mg/kg
Description: as §4
After observing the mice and rats for two days before test, and those without abnormal conditions is carried out test. Don't give anything to eat to mice and rats overnight before test. […] […] Observe those taking drugs for one week for toxic reaction and death.

gonococcus (10) = test: Clinical isolates, agar double dilution method; format: cell-based; settings: 10 clinical isolates of gonococcus; for MIC50: read-out: MIC50; for MIC90: read-out: MIC90
[13] = system: streptococcus pneumoniae (112); test: Clinical isolates, agar double dilution method; format: cell-based; settings: 112 clinical isolates of streptococcus pneumoniae; for MIC50: read-out: MIC50; for MIC90: read-out: MIC90

SMILES | MIC50 [1] [µg/mL] | MIC90 [1] [µg/mL] | MIC (staphylococcus aureus12 [2]) [µg/mL] | ED50 (staphylococcus aureus12 [3]) [mg/kg] | ED50 (staphylococcus aureus76 [4]) [mg/kg] | ED50 (staphylococcus aureus16) [mg/kg] | ED50 (staphylococcus aureus21) [mg/kg] | MIC [5] [µg/mL] | MIC [6] [µg/mL] | MIC [7] [µg/mL] | MIC50 (S. epidermidis (115)) [µg/mL] | MIC90 (S. epidermidis (115)) [µg/mL] | MIC (staphylococcus aureus76 [9]) [µg/mL] | MIC [10] [µg/mL] | MIC [11] [µg/mL] | MIC range (gonococcus (10)) [µg/mL] | MIC50 (gonococcus (10)) [µg/mL] | MIC90 (gonococcus (10)) [µg/mL] | MIC50 [13] [µg/mL] | MIC90 [13] [µg/mL] | further results
COC1C(O)CC(=O)OC(C)C/C=C/C=C/C(OC2CCC(N(C)C)C(C)O2)C(C)CC(CC=O)C1OC1OC(C)C(OC2CC(C)(O)C(OC(=O)CC(C)C)C(C)O2)C(N(C)C)C1O (stereo not shown) [Levoisovalerylspiramycin I, levoisovalerylspiramycin I] | 1 (≈ 1.08 µM) | 64 (≈ 69 µM) | 1 (≈ 1.08 µM) | 110 | 24.4 | 23.5 | 42.7 | 0.03 (≈ 0.0324 µM) | 0.12 (≈ 0.129 µM) | 0.25 (≈ 0.27 µM) | 1 (≈ 1.08 µM) | 32 (≈ 34.5 µM) | 0.5 (≈ 0.539 µM) | 0.25 (≈ 0.27 µM) | 0.06 (≈ 0.0647 µM) | 0.12 to 16 | 1 (≈ 1.08 µM) | 4 (≈ 4.31 µM) | 0.12 (≈ 0.129 µM) | 2 (≈ 2.16 µM) | Mortality rate (%) ([8]; mice, oral): 35%; mortality ([8]; mice, oral, deaths of 20 animals, observed one week): 7; LD50 at 1 week ([8]; mouse, in vivo, po): > 4000 mg/kg; protective effect (curative effect) on infected mouse (12 strains of bacteria): good protective effect; LD50 at 1 week ([12]; rat, in vivo, po): > 4500 mg/kg; Mortality rate (%) ([12]; rats, oral): 15%; mortality ([12]; rats, oral, deaths of 20 animals, observed one week): 3
COC1C(OC(C)=O)CC(=O)OC(C)C/C=C/C=C/C(OC2CCC(N(C)C)C(C)O2)C(C)CC(CC=O)C1OC1OC(C)C(OC2CC(C)(O)C(OC(=O)CC(C)C)C(C)O2)C(N(C)C)C1O (stereo not shown) [Levoisovalerylspiramycin II, levoisovalerylspiramycin II] | 1 (≈ 1.03 µM) | 32 (≈ 33 µM) | 1 (≈ 1.03 µM) | 108 | 22.3 | 20.9 | 38.9 | 0.03 (≈ 0.031 µM) | 0.12 (≈ 0.124 µM) | 0.25 (≈ 0.258 µM) | 1 (≈ 1.03 µM) | 64 (≈ 66 µM) | 0.25 (≈ 0.258 µM) | 0.25 (≈ 0.258 µM) | 0.06 (≈ 0.0619 µM) | 0.12 to 16 | 1 (≈ 1.03 µM) | 4 (≈ 4.13 µM) | 0.12 (≈ 0.124 µM) | 2 (≈ 2.06 µM) | LD50 at 1 week ([8]; mouse, in vivo, po): > 4000 mg/kg; Mortality rate (%) ([8]; mouse, in vivo, po, 1 week): 35%; mortality ([8]; mouse, in vivo, po, 1 week): 7; LD50 at 1 week ([12]; rat, in vivo, po): > 4500 mg/kg; Mortality rate (%) ([12]; rat, in vivo, po, 1 week): 15%; mortality ([12]; rat, in vivo, po, 1 week): 3
CCC(=O)OC1CC(=O)OC(C)C/C=C/C=C/C(OC2CCC(N(C)C)C(C)O2)C(C)CC(CC=O)C(OC2OC(C)C(OC3CC(C)(O)C(OC(=O)CC(C)C)C(C)O3)C(N(C)C)C2O)C1OC (stereo not shown) [Levoisovalerylspiramycin III, levoisovalerylspiramycin III] | 2 (≈ 2.03 µM) | 32 (≈ 32.5 µM) | 1 (≈ 1.02 µM) | 108 | 22.3 | 20.9 | 38.9 | 0.03 (≈ 0.0305 µM) | 0.12 (≈ 0.122 µM) | 0.25 (≈ 0.254 µM) | 1 (≈ 1.02 µM) | 32 (≈ 32.5 µM) | 0.25 (≈ 0.254 µM) | 0.25 (≈ 0.254 µM) | 0.06 (≈ 0.061 µM) | 0.12 to 16 | 1 (≈ 1.02 µM) | 4 (≈ 4.07 µM) | 0.12 (≈ 0.122 µM) | 4 (≈ 4.07 µM) | LD50 at 1 week ([8]; mouse, in vivo, po): > 4000 mg/kg; Mortality rate (%) ([8]; mouse, in vivo, po, 1 week): 35%; mortality ([8]; mouse, in vivo, po, 1 week): 7; LD50 at 1 week ([12]; rat, in vivo, po): > 4500 mg/kg; Mortality rate (%) ([12]; rat, in vivo, po, 1 week): 15%; mortality ([12]; rat, in vivo, po, 1 week): 3
CC[C@H]1OC(=O)[C@H](C)[C@@H](O[C@H]2C[C@@](C)(OC)[C@@H](O)[C@H](C)O2)[C@H](C)[C@@H](O[C@@H]2O[C@H](C)C[C@H](N(C)C)[C@H]2O)[C@](C)(O)C[C@@H](C)CN(C)[C@H](C)[C@@H](O)[C@]1(C)O [azithromycin, reference compound] | 2 (≈ 2.67 µM) | > 64 | 2 (≈ 2.67 µM) | 120 | 58.8 | 32 | 143 | 0.06 (≈ 0.0801 µM) | 0.12 (≈ 0.16 µM) | 0.5 (≈ 0.668 µM) | 8 (≈ 10.7 µM) | > 64 | 1 (≈ 1.34 µM) | 0.25 (≈ 0.334 µM) | 0.25 (≈ 0.334 µM) | 0.12 to 64 | 2 (≈ 2.67 µM) | 8 (≈ 10.7 µM) | 0.25 (≈ 0.334 µM) | 8 (≈ 10.7 µM) | 
CC[C@H]1OC(=O)[C@H](C)[C@@H](O[C@H]2C[C@@](C)(OC)[C@@H](O)[C@H](C)O2)[C@H](C)[C@@H](O[C@@H]2O[C@H](C)C[C@H](N(C)C)[C@H]2O)[C@](C)(O)C[C@@H](C)C(=O)[C@H](C)[C@@H](O)[C@]1(C)O [erythrocin, reference compound] | 1 (≈ 1.36 µM) | > 64 |  | 266 | 64.2 | 82.4 | 214 | 0.06 (≈ 0.0818 µM) | 1 (≈ 1.36 µM) | 0.5 (≈ 0.681 µM) | 8 (≈ 10.9 µM) | > 64 | 1 (≈ 1.36 µM) | 0.5 (≈ 0.681 µM) | 0.5 (≈ 0.681 µM) | 0.12 to 64 | 1 (≈ 1.36 µM) | 8 (≈ 10.9 µM) | 0.25 (≈ 0.341 µM) | 64 (≈ 87.2 µM) | 
